Laboratory results published in the supplement of paper PMC10307832.

What was measured:
Test in all cases: relative viability (nuclei count vs DMSO), 5 days (fraction); higher = more cells survive
[1] = compound: CN1CCN(CC1)C2=CC(=C(C=C2)NC3=NC=C4C(=N3)N(C5=CC=CC=C5C(=O)N4C)C)OC [XMD8-85] + CC(=O)c1c(C)c2cnc(Nc3ccc(N4CCNCC4)cn3)nc2n(C2CCCC2)c1=O [Palbociclib] (partner 0.5 µM)
How it was run: (§1)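 Nuclei were stained with Hoechst during a one-step fixation (final 0.05% Triton X-100, 1% formaldehyde, 1 ug/ml Hoechst) carried out 5 days after dosing, then counted on 4× images. The cells, lung cancer lines in 1536-well plates, had been dosed by pin tool the day after seeding with one drug alone or a fixed anchor-drug dose plus five library-drug doses (not always all listed) in √10 steps. Relative viability is the nuclei count in treated wells divided by that in vehicle wells, and each value is the median of duplicate plates.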

[2] = compound: CN1CCN(CC1)C2=CC(=C(C=C2)NC3=NC=C4C(=N3)N(C5=CC=CC=C5C(=O)N4C)C)OC [XMD8-85] + C[C@@H](Oc1cc(-c2cnn(C3CCNCC3)c2)cnc1N)c1c(Cl)ccc(F)c1Cl [Crizotinib] (partner 1 µM)
How it was run: as §1

[3] = compound: O=C(O)C(Cc1ccccc1[N+](=O)[O-])=NNc1nc(-c2ccc(Cl)c(Cl)c2)cs1 (mixture of isomers) [4EGI-1] + CC(C)C[C@H](NC(=O)[C@H](Cc1ccccc1)NC(=O)c1cnccn1)B(O)O [Bortezomib] (partner 0.002 µM)
How it was run: as §1

[4] = compound: O=C(O)C(Cc1ccccc1[N+](=O)[O-])=NNc1nc(-c2ccc(Cl)c(Cl)c2)cs1 (mixture of isomers) [4EGI-1] + O=C(CCCCCCC(=O)Nc1ccccc1)NO [Vorinostat] (partner 1 µM)
How it was run: as §1

| Cell Line | relative viability ([1]; first compound 0.08 µM) | relative viability ([1]; first compound 0.253 µM) | relative viability ([1]; first compound 0.8 µM) | relative viability ([1]; first compound 2.53 µM) | relative viability ([1]; first compound 8 µM) | relative viability ([2]; first compound 0.08 µM) | relative viability ([2]; first compound 0.253 µM) | relative viability ([2]; first compound 0.8 µM) | relative viability ([2]; first compound 2.53 µM) | relative viability ([2]; first compound 8 µM) | relative viability ([3]; first compound 0.5 µM) | relative viability ([3]; first compound 5 µM) | relative viability ([3]; first compound 15.81 µM) | relative viability ([3]; first compound 50 µM) | relative viability ([4]; first compound 0.5 µM) | relative viability ([4]; first compound 1.581 µM) | relative viability ([4]; first compound 5 µM) | relative viability ([4]; first compound 15.81 µM) | relative viability ([4]; first compound 50 µM) | relative viability ([3]; first compound 1.581 µM) |
| --- | --- | --- | --- | --- | --- | --- | --- | --- | --- | --- | --- | --- | --- | --- | --- | --- | --- | --- | --- | --- |
| NCI-H838 | 0.224 | 0.197 | 0.227 | 0.251 | 0.184 | 0.774 | 0.808 | 1.07 | 0.815 | 0.292 | 0.865 | 0.82 | 0.612 | 0.167 | 0.724 | 0.732 | 0.738 | 0.605 | 0.263 | – |
| HCC-15 | 0.728 | 0.705 | 0.751 | 0.708 | 0.619 | 0.852 | 0.859 | 0.855 | 0.806 | 0.592 | 1.09 | 1.06 | 0.951 | 0.801 | 0.863 | 0.812 | 0.809 | 0.686 | 0.513 | 1.12 |
| EPLC-272H | 0.284 | 0.317 | 0.312 | 0.306 | 0.303 | – | 0.678 | 1.03 | 0.947 | 0.691 | 1.01 | 0.898 | 0.618 | 0.497 | 0.563 | 0.493 | 0.337 | 0.295 | 0.12 | 0.686 |
| NCI-H1755 | 0.47 | 0.445 | 0.432 | 0.449 | 0.393 | 0.901 | 0.978 | 0.892 | 0.939 | 0.748 | 1.06 | 0.918 | 0.802 | 0.441 | 0.818 | 0.749 | 0.891 | 0.853 | 0.626 | 0.94 |
| EMC-BAC-2 | 0.494 | 0.495 | 0.504 | 0.473 | 0.458 | 0.748 | – | 0.794 | 0.662 | 0.72 | 1.17 | 1.13 | 1.05 | 0.88 | 0.472 | – | 0.634 | 0.318 | 0.168 | 1.02 |
| 201T | 0.342 | 0.321 | 0.36 | 0.34 | 0.325 | 1.02 | 1.04 | 1.03 | 1.03 | 0.949 | 1.15 | 1.08 | 1.09 | 1.03 | 1.11 | 1.03 | 1.07 | 0.852 | 0.559 | 1.05 |
| HARA | 0.278 | 0.287 | 0.279 | 0.247 | 0.195 | 1.21 | 0.885 | 1.3 | 0.94 | 0.417 | 1.16 | 1.26 | 1.08 | 0.154 | 0.545 | 0.429 | 0.525 | 0.47 | 0.127 | 1.12 |
| LC-2-ad | 0.482 | 0.452 | 0.51 | 0.49 | 0.39 | 0.442 | 0.446 | 0.462 | 0.444 | 0.303 | 1.17 | 0.944 | 0.444 | 0.352 | 0.736 | 0.62 | 0.617 | 0.356 | 0.207 | 0.877 |
| NCI-H661 | 0.401 | – | 0.4 | 0.443 | 0.346 | 1.03 | 1.16 | 0.905 | 1.1 | 0.854 | 1.13 | 0.877 | 0.55 | 0.464 | 0.856 | 0.702 | 0.789 | 0.681 | 0.353 | 0.752 |
| NCI-H2087 | 0.205 | 0.168 | 0.222 | 0.217 | 0.172 | 0.821 | 0.857 | 0.994 | 0.994 | 0.674 | 1.04 | 0.882 | 0.726 | 0.335 | 0.694 | 0.958 | 0.724 | 0.995 | 0.343 | 0.782 |
| EKVX | 0.285 | 0.369 | 0.446 | 0.487 | 0.372 | 0.892 | 0.985 | 1.12 | 1 | 0.886 | 1.09 | 1.06 | 1.04 | 1.04 | 0.852 | 0.746 | 0.759 | 0.309 | 0.203 | 0.965 |
| NCI-H650 | 0.275 | 0.32 | 0.302 | 0.288 | 0.255 | 0.6 | 0.603 | 0.712 | 0.57 | 0.345 | 0.905 | 0.753 | 0.899 | 0.499 | 0.528 | – | 0.472 | 0.488 | 0.296 | – |
| NCI-H1355 | 0.395 | 0.365 | – | 0.619 | 0.306 | 1.16 | 1.07 | 1.06 | 0.989 | 0.77 | 1.32 | 1.11 | 1.18 | 0.545 | 0.698 | 0.586 | 0.662 | 0.595 | 0.514 | 1.17 |
| HOP-62 | 0.512 | 0.463 | – | 0.378 | 0.246 | 1.04 | 1.07 | 0.951 | 0.835 | 0.724 | 1.32 | 1.03 | 1.06 | 0.45 | 0.65 | 0.346 | 0.715 | 0.616 | 0.104 | – |
| BEN | 0.466 | 0.449 | 0.475 | 0.446 | 0.463 | 0.744 | 0.865 | – | 0.608 | 0.447 | 0.848 | 0.903 | 0.754 | 0.604 | 0.63 | 0.599 | 0.589 | 0.557 | 0.442 | 1.22 |
| NCI-H2023 | 0.368 | 0.441 | 0.334 | 0.411 | 0.246 | 0.578 | 0.627 | 0.705 | 0.544 | 0.287 | 1.53 | 1.23 | 0.309 | 0.101 | 0.91 | – | 0.722 | 0.138 | 0.0836 | – |
